Measured values from patent US5594144A, “Tropolone derivatives and pharmaceutical composition thereof for preventing and treating ischemic diseases” (The Upjohn Company, priority 1990, dated 1997).

Columns and labels:
[1] = system: pig right coronary artery; assay: in vitro Ca-antagonism (high K+ induced 45Ca-influx); assay type: cell-based; conditions: Sus scrofa, K+ 75 mM
Method: 2. in vitro Ca-antagonism
A strip of pig right coronary artery was depolarized with high K^+ (75 mM) for 30 minutes to induce voltage dependent ^45 Ca-influx. The extracellular ^45 Ca was chelated by adding EGTA and removed by washing, then the strip was lysed at 100° C. ^45 Ca in this lysate was measured as intracellular ^45 Ca by a scintillation counter. The concentration of the test compound was 10^-7, 10^-6, 10^-5 M, and applied until depolarization by K^+ was completed. Ratio of inhibition at various concentrations of the test compounds for increasing the intracellular ^45 Ca by K^+ was determined. The compound with high inhibition ratio has strong Ca-antagonism.

[2] = system: Brain microsomal fractions; assay: in vitro Anti-lipid peroxidation effect (TBAR production, Fe3+-ADP/NADPH); assay type: biochemical, rat (SD strain, male)
Method: 1. in vitro Anti-lipid peroxidation effect
Brain microsomal fractions were prepared from male rats of SD strain, and a portion (0.2 mg protein) was incubated at 37° C. for 15 minutes with a mixture of Fe^3+ (0.1 mM)--ADP (0.5 mM) in the presence or absence of the test compound, in final volume of 1 ml of 10 mM HEPES, 150 mM KCl, 0.2 mM NADPH, pH 7.4. After incubation, 1.5 ml of TCA-TBA-HCl reagent (16.7% trichloroacetic acid, 0.4% thiobarbituric acid, 0.278N hydrochloric acid) was added and the reaction mixture was heated in a boiling water for 15 minutes. After cooling in ice-bath, the reaction mixture was centrifuged, and the absorbance of the supernatant at 535 nm was measured. The amount of thiobarbituric acid reactive substance (TBAR) was obtained by calculation using an extinction coefficient of 1.56×10^5 […]. […] The results are shown in Table 1A for compounds of the formulas IA, IB, and IC, respectively. The compounds with highest inhibition rate have the greatest anti-lipid peroxidation effect.

| Structure (SMILES) | inhibition at 10 µM [1] [%] | Anti-Lipid Peroxidation (% inhibition) 10 μM [2] [%] | Anti-Lipid Peroxidation (% inhibition) 50 μM [2] [%] |
| --- | --- | --- | --- |
| CC(C)c1ccc(CN2CCN(C(c3ccc(F)cc3)c3ccc(F)cc3)CC2)c(=O)c(NCCNc2ccccn2)c1 [Compound 9C, 7-[4-(4,4'-difluorobenzhydryl)piperazino-1-methyl]-4-isopropyl-2-[N-2-(2-pyridylamino)ethylamino]-2,4,6-cycloheptatrien-1-one] | 38 | 88.1 | 91.6 |
| COc1ccc(C(c2ccc(Cl)cc2)N2CCN(Cc3ccc(C(C)C)cc(OC)c3=O)CC2)cc1 (stereo not drawn) [Compound 10A, 7-[4-(4-chloro-4'-methoxybenzhydryl)piperazin-1-methyl]-4-isopropyl-2-methoxy-2,4,6-cycloheptatrien-1-one] | 53 | 24.0 | 81.6 |
| CC(C)c1ccc(CN2CCN(C(c3ccc(F)cc3)c3ccc(F)cc3)CC2)c(=O)c(NCCNc2ncccn2)c1 [Compound 10C, 7-[4-(4,4'-difluorobenzhydryl)piperazino-1-methyl]-4-isopropyl-2-[N-2-(2-pyrimidylamino)ethylamino]-2,4,6-cycloheptatrien-1-one] | 65 | 46.3 | 92.5 |
| CC(C)c1ccc(CN2CCN(C(c3ccc(F)cc3)c3ccc(F)cc3)CC2)c(=O)c(NCCc2ccccn2)c1 [Compound 11C, 7-[4-(4,4'-difluorobenzhydryl)piperazino-1-methyl]-4-isopropyl-2-[N-2-(2-pyridyl)ethylamino]-2,4,6-cycloheptatrien-1-one] | 62 | 32.2 | 89.8 |
| CCOc1cc(C(C)C)ccc(CN2CCN(C(c3ccc(F)cc3)c3ccc(F)cc3)CC2)c1=O [Compound 12A, 7-[4-(4,4'-difluorobenzhydryl)piperazino-1-methyl]-2-ethoxy-4-isopropyl-2,4,6-cycloheptatrien-1-one] | 72 | 21.4 | 50.4 |
| CC(C)c1ccc(CN2CCN(C(c3ccc(F)cc3)c3ccc(F)cc3)CC2)c(=O)c(NCc2ccccn2)c1 [Compound 12C, 7-[4-(4,4'-difluorobenzhydryl)piperazino-1-methyl]-4-isopropyl-2-(N-2-pyridylmethylamino)-2,4,6-cycloheptatrien-1-one] | 47 | 86.4 | 89.3 |
| CCCCOc1cc(C(C)C)ccc(CN2CCN(C(c3ccc(F)cc3)c3ccc(F)cc3)CC2)c1=O [Compound 13A, 2-butoxy-7-[4-(4,4'-difluorobenzhydryl)piperazino-1-methyl]-4-isopropyl-2,4,6-cycloheptatrien-1-one] | 38 | 23.1 | 27.4 |
| CC(C)c1ccc(CN2CCN(C(c3ccc(F)cc3)c3ccc(F)cc3)CC2)c(=O)c(NCCO)c1 [Compound 13C, 7-[4-(4,4'-difluorobenzhydryl)piperazino-1-methyl]-2-(N-2-hydroxyethylamino)-4-isopropyl-2,4,6-cycloheptatrien-1-one] | 90 | 36.9 | 89.5 |
| COCCNc1cc(C(C)C)ccc(CN2CCN(C(c3ccc(F)cc3)c3ccc(F)cc3)CC2)c1=O [Compound 14C, 7-[4-(4,4'-difluorobenzhydryl)piperazino-1-methyl]-4-isopropyl-2-(N-2-methoxyethylamino)-2,4,6-cycloheptatrien-1-one] | 71 | 27.0 | 90.4 |
| CC(C)c1ccc(CN2CCN(C(c3ccc(F)cc3)c3ccc(F)cc3)CC2)c(=O)c(OCc2ccccc2)c1 [Compound 15A, 2-benzyloxy-7-[4-(4,4'-difluorobenzhydryl)piperazino-1-methyl]-4-isopropyl-2,4,6-cycloheptatrien-1-one] | 20 | 22.4 | 29.0 |
| COC(=O)CNc1cc(C(C)C)ccc(CN2CCN(C(c3ccc(F)cc3)c3ccc(F)cc3)CC2)c1=O [Compound 15C, methyl 2-{N-7-[4-(4,4'-difluorobenzhydryl)piperazino-1-methyl]-4-isopropyl-1-oxo-2,4,6-cycloheptatrien-2-ylamino}acetate] | 92 | 38.6 | 79.8 |
| COc1ccc(CCOc2cc(C(C)C)ccc(CN3CCN(C(c4ccc(F)cc4)c4ccc(F)cc4)CC3)c2=O)cc1OC [Compound 16A, 7-[4-(4,4'-difluorobenzhydryl)piperazino-1-methyl]-2-[2-(3,4-dimethoxyphenyl)ethoxy]-4-isopropyl-2,4,6-cycloheptatrien-1-one] | 52 | 19.1 | 19.1 |
| CCOC(=O)CCNc1cc(C(C)C)ccc(CN2CCN(C(c3ccc(F)cc3)c3ccc(F)cc3)CC2)c1=O [Compound 16C, ethyl 3-{N-7-[4-(4,4'-difluorobenzhydryl)piperazino-1-methyl]-4-isopropyl-1-oxo-2,4,6-cycloheptatrien-2-ylamino}propionate] | 47 | 29.1 | 58.0 |
| CC(C)c1ccc(CN2CCN(C(c3ccc(F)cc3)c3ccc(F)cc3)CC2)c(=O)c(N2CCCCC2)c1 [Compound 17C, 7-[4-(4,4'-difluorobenzhydryl)piperazino-1-methyl]-4-isopropyl-2-piperidino-2,4,6-cycloheptatrien-1-one] | 53 | 32.4 | 44.1 |
| CC(C)c1ccc(CN2CCN(C(c3ccc(F)cc3)c3ccc(F)cc3)CC2)c(=O)c(N2CCOCC2)c1 [Compound 18C, 7-[4-(4,4'-difluorobenzhydryl)piperazino-1-methyl]-4-isopropyl-2-morpholino-2,4,6-cycloheptatrien-1-one] | 84 | 26.7 | 41.2 |
| CC(C)c1ccc(CN2CCN(C(c3ccc(F)cc3)c3ccc(F)cc3)CC2)c(=O)c(N2CCNCC2)c1 [Compound 19C, 7-[4-(4,4'-difluorobenzhydryl)piperazino-1-methyl]-4-isopropyl-2-(1-piperazino)-2,4,6-cycloheptatrien-1-one] | 62 | 30.1 | 89.1 |
| CCNc1cccnc1N1CCN(c2cc(C(C)C)ccc(CN3CCN(C(c4ccc(F)cc4)c4ccc(F)cc4)CC3)c2=O)CC1 [Compound 20C, 7-[4-(4,4'-difluorobenzhydryl)piperazino-1-methyl]-2-[4-(3-ethylamino-2-pyridyl)piperazino]-4-isopropyl-2,4,6-cycloheptatrien-1-one] | 30 | 91.6 | 93.8 |
| COc1cc(C(C)C)ccc(CN2C(C)CN(C(c3ccc(F)cc3)c3ccc(F)cc3)CC2C)c1=O (stereo not drawn) [Compound 21C, 7-[4-(4,4'-difluorobenzhydryl)-2,6-dimethylpiperazino-1-methyl]-4-isopropyl-2-methoxy-2,4,6-cycloheptatrien-1-one] | 42 | 47.8 | 89.9 |
| COc1cc(C(C)C)ccc(CN2CCN(C(c3ccc(F)cc3)c3ccc(F)cc3)CC2C)c1=O (stereo not drawn) [Compound 22C, 7-[4-(4,4'-difluorobenzhydryl)-2-methylpiperazino-1-methyl]-4-isopropyl-2-methoxy-2,4,6-cycloheptatrien-1-one] | 66 | 32.8 | 88.7 |
